Data reported in paper PMC11969031, “The homeostasis of β‐alanine is key for Arabidopsis reproductive growth and development” (The Plant Journal, 2025).

Assays:
[1] = target: T1, AGT2_weak (AT4G39660, recombinant) (Arabidopsis thaliana, UniProt Q940M2); test: coupled NADH assay at […] nm (pyruvate dehydrogenase); type: biochemical; settings: amino donor; 50 μM glyoxylate/2-oxoglutarate/pyruvate, 3 μM enzyme, 50 mM Tris pH 8.0, 30°C; degradation direction only
T1 construct: gene AGT2; first 29 residues (signal peptide) of 476 removed; codon-optimised synthetic gene, pET24a, C-terminal His6; E. coli BL21(DE3); Ni-NTA
T1 sequence (Q940M2 30-476): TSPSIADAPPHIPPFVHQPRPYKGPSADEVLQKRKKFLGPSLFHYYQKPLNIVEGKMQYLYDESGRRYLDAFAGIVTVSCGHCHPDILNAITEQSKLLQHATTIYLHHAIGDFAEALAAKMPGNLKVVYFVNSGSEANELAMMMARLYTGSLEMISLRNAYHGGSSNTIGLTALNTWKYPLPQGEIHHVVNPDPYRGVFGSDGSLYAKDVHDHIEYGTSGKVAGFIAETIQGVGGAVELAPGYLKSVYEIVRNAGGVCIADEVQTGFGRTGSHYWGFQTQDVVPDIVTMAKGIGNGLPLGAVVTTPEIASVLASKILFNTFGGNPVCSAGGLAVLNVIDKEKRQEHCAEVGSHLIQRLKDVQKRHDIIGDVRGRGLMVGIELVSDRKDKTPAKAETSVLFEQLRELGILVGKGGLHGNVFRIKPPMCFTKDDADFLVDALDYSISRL

[2] = target: T2, Col-0-PYD4 (AT3G08860, recombinant) (Arabidopsis thaliana, UniProt Q9SR86); test: coupled NADH assay at […] nm (pyruvate or alanine dehydrogenase); type: biochemical; settings: 50 mM Tris pH 8.0, 30°C
T2 construct: first 31 residues (signal peptide) removed; codon-optimised synthetic gene, pET24a, C-terminal His6; E. coli BL21(DE3); Ni-NTA
T2 sequence (Q9SR86 32-481): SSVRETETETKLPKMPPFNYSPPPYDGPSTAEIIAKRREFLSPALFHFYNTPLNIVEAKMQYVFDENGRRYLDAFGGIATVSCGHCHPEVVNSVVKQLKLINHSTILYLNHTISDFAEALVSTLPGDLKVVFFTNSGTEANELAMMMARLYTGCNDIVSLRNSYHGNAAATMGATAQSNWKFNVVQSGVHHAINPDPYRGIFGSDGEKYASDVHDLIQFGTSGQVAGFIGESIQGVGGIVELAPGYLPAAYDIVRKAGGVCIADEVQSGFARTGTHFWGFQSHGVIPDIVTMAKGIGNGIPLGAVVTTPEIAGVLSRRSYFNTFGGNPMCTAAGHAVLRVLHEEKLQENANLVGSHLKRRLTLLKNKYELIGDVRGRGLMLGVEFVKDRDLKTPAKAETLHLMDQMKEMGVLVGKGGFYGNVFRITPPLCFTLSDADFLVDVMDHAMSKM

| SMILES | coupled NADH assay at 340 nm (pyruvate dehydrogenase) [1] | coupled NADH assay at 340 nm (pyruvate or alanine dehydrogenase) ([2]; amino donor (positive control enzyme; works in both directions)) | coupled NADH assay at 340 nm (pyruvate or alanine dehydrogenase) ([2]; amino donor, acceptor not given) |
| --- | --- | --- | --- |
| C[C@H](N)C(=O)O [L‐alanine] | We also detected activity when L‐alanine was used as the amino donor | activity when L‐alanine was used as the amino donor, but unlike PYD4, AGT2 only functions | – |
| NCCC(=O)O [β‐alanine] | – | – | PYD4 was also able to use β‐alanine as an amino donor |
